Several values for one entry are separate records, joined by “and”; a condition that tells them apart may be missing. Equal values may be shown once. Activity calls are given as the source filed them.
How the values were obtained:
[1] = Luminescence Cell-Based Dose Confirmation HTS to Identify Activators of 5'UTR Stem-Loop Driven Alpha-Synuclein mRNA Translation in H4 Neuroglioblastoma Cells. [Related pubchem assays: 1829 (Project Summary), 1814 (Primary HTS)]; format: functional
[2] = Luminescence Cell-Based Dose Response HTS to Identify Activators of Luciferase Translation or Activity in H4 […] Cells. [Related pubchem assays: 1829 (Project Summary), 1814 (Primary HTS)]; format: functional
[3] = system: H4; test: Luminescence Cell-Based Dose Response HTS to Identify Activators of 5'UTR Stem-Loop Driven Prion Protein mRNA Translation in H4 Neuroglioblastoma Cells. [Related pubchem assays: 1829 (Project Summary), 1814 (Primary HTS)]; format: functional; conditions: Homo sapiens
[4] = viability of PTEN-deleted HCT116 cells – cell-based, HCT116 PTEN knockout, dose response (AID 1047); format: functional;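 further: HCT116 colon tumor cells with PTEN knocked out; cells exposed to compound for 60 hours before readout; potency for loss of cell viability measured by luminescence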
[5] = viability of HCT116 lacking mutant beta-catenin – cell-based, human colon tumor, dose response (AID 1045); format: functional;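 further: HCT116 colon tumor cells with beta catenin knocked out; cells exposed to compound for 60 hours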
[6] = target: Cytochrome P450 2C19 (Homo sapiens, UniProt P33261); test: Cytochrome panel assay with activity outcomes. Panel member name: p450-cyp2c19 Compounds with AC50 equal or less than 10 uM are considered active; format: functional
[7] = target: Cytochrome P450 2D6 (Homo sapiens, UniProt P10635)
[8] = target: T1, Cytochrome P450 1A2 (Homo sapiens, UniProt P05177);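 further: PubChem cytochrome P450 panel assay, CYP1A2 panel member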
T1 sequence (P05177 whole entry): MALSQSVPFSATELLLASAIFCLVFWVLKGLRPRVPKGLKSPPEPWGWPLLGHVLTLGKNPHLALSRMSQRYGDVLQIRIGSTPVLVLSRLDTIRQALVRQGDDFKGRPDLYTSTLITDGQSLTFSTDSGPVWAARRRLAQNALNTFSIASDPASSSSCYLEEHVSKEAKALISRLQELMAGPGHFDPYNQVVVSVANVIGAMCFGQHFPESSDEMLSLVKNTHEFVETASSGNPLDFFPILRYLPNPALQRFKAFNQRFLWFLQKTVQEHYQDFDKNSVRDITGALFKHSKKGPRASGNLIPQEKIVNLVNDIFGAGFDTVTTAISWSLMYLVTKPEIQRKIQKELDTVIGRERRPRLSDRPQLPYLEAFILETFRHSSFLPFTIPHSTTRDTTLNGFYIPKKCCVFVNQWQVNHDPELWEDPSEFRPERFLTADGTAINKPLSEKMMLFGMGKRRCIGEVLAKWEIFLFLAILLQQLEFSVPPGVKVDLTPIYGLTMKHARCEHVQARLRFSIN

[9] = Luminescence Cell-Based Dose Response HTS to Identify Inhibitors of 5'UTR Stem-Loop Driven Prion Protein mRNA Translation in H4 Neuroglioblastoma Cells. [Related pubchem assays: 1827 (Project Summary), 1813 (Primary HTS)]; format: functional
[10] = alpha-synuclein stem-loop luciferase translation blockers – H4 neuroglioma cells, luminescence, confirmation (AID 1988); format: functional, cell-based
[11] = target: Cytochrome P450 3A4 (Homo sapiens, UniProt P08684);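 further: CYP3A4 tested as one member of a cytochrome P450 panel screen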
[12] = target: Cytochrome P450 2C9 (Homo sapiens, UniProt P11712)
[13] = Luminescence Cell-Based Dose Retest to Confirm Inhibitors of Cancer Stem Cells. [Related pubchem assays (depositor defined):AID2717, AID2721]; format: functional; conditions: Homo sapiens
[14] = Trypanosoma cruzi growth suppression in host cells – NIH3T3 host cells, beta-gal luminescence, confirmation (AID 2044); format: functional, cell-based;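 further: intracellular parasites grown in NIH/3T3 mouse fibroblasts as host cells; luminescent beta-galactosidase reporter signal from transgenic T. cruzi replicating inside host cells; inhibitors lower the luminescence signal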
[15] = NIH3T3 cell viability loss – ATP luminescence, mouse fibroblasts, counter-screen, dose response (AID 2010); format: functional, cell-based;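 further: cells exposed to compound for about 90 hours before reading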
[16] = system: Streptococcus sp. 'group A'; test: Streptococcus pyogenes SK(-)GAS viability under kanamycin – luminescence, BacTiterGlo, confirmation, counter-screen for streptokinase expression inhibitor project, dose response (AID 1900); format: functional, organism-based
[17] = target: T2, Streptokinase A (Streptococcus pyogenes serotype M1, UniProt P10520); test: viability-normalized secreted streptokinase activity reduction – plasminogen activation absorbance, OD405, dose response (AID 1914); format: functional, Streptococcus pyogenes M1 GAS;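 further: secreted streptokinase activity via plasminogen activation per viability signal from cell pellet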
T2 sequence (P10520 whole entry): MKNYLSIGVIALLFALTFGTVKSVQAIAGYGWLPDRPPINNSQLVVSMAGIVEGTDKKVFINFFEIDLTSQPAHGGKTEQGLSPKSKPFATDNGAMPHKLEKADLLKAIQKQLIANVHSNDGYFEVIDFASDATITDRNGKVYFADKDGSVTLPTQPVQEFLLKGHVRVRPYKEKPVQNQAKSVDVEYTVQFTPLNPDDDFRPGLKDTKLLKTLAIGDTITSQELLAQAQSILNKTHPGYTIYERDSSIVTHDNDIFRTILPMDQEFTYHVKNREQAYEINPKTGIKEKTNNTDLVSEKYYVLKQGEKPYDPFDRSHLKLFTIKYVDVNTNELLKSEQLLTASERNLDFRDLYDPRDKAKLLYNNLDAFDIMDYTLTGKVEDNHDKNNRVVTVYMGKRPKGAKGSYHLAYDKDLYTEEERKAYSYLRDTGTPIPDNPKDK

[18] = system: Streptococcus; test: GAS UMAA2166 growth inhibition – luminescence, BacTiterGlo, counter-screen for streptokinase expression inhibitor project, dose response (AID 1915); format: functional, organism-based;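 further: potency for reduction of bacterial viability or growth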
[19] = system: INS1; test: INS-1E survival protection against cytokine death – cell-based, luminescence, retest, dose response (AID 449756); format: functional; conditions: Rattus norvegicus;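 further: cell death triggered by IL-1 beta plus TNF-alpha plus IFN-gamma mixture; protective hits raise ATP signal compared with cytokine alone wells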

Chain of Cytochrome P450 2D6 (P10635 whole entry): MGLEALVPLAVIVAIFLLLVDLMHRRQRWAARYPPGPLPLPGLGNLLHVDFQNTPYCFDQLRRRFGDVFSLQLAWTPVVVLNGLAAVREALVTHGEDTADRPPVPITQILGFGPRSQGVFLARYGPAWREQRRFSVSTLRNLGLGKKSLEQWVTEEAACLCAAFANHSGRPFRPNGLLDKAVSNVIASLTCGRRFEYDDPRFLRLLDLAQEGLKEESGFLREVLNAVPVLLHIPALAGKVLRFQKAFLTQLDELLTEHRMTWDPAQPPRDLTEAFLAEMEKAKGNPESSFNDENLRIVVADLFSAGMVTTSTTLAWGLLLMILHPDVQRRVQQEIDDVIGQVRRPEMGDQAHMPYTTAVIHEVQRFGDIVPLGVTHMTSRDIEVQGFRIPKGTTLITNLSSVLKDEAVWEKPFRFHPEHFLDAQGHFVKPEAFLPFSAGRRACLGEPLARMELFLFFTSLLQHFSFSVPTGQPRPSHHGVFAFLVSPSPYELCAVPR
Chain of Cytochrome P450 2C9 (P11712 whole entry): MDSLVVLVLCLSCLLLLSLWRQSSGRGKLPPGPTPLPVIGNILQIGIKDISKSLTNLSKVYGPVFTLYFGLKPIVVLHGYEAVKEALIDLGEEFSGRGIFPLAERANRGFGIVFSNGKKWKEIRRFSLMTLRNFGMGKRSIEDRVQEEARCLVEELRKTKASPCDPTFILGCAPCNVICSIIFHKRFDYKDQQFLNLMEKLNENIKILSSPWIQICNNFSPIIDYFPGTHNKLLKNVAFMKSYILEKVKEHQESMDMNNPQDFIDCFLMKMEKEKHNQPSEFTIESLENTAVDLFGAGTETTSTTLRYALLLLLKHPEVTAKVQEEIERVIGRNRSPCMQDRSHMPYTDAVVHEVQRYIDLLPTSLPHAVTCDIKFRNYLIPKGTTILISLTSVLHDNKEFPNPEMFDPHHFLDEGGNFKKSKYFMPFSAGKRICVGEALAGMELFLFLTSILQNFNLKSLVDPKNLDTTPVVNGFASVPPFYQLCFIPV
Chain of Cytochrome P450 2C19 (P33261 whole entry): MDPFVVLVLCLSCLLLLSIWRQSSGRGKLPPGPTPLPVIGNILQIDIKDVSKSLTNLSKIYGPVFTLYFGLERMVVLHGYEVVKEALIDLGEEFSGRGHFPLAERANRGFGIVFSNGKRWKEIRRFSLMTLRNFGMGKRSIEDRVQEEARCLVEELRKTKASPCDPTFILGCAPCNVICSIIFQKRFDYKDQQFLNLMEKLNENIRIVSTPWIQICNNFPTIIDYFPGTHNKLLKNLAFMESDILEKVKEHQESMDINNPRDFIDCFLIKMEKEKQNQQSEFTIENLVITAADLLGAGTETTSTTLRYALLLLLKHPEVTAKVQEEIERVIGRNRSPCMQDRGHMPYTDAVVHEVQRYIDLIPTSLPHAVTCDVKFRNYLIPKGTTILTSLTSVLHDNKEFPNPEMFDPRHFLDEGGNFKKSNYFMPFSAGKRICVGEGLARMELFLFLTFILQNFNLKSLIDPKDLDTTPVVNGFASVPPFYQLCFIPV
Chain of Cytochrome P450 3A4 (P08684 whole entry): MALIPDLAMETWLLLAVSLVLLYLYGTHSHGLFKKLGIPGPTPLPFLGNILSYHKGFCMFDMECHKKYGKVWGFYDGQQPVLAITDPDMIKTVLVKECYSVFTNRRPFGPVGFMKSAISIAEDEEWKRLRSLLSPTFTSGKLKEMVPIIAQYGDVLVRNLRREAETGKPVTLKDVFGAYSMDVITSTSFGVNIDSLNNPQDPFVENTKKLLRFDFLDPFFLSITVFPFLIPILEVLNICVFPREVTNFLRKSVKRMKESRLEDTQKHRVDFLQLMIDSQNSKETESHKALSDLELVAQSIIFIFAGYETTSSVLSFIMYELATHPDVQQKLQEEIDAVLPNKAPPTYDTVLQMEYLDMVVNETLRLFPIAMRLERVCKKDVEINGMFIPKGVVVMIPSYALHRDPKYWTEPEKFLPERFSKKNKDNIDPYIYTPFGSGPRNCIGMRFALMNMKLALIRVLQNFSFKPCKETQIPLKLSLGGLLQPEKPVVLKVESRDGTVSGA

[O-][n+]1c2c([n+]([O-])c3cc(N4CCCC4)c(F)cc31)CCCC2
EC50 [1]: > 60 µM (not active) | EC50 [2]: 20.3 µM (active) | EC50 [3]: 7.53 µM (active)

CCCCNC(=O)CSc1nc2cc(OC)c(OC)cc2c(=O)n1Cc1ccc(OC)cc1
EC50 [4]: 6.66 µM (active) | EC50 [5]: 10.3 µM (active) | AC50 ([6]; read-out: AC50): 6.31 µM (inconclusive)

Cc1c(Br)c([N+](=O)[O-])nn1CC(=O)NCc1cccs1
AC50 ([6]; read-out: AC50): 5.01 µM (inconclusive) | AC50 [7]: 5.01 µM (inconclusive) | AC50 [8]: 14.1 µM (inconclusive)

CN1C(=O)C(O)(CC(=O)c2ccccc2O)c2cc(Br)ccc21 (stereo not drawn)
EC50 [4]: 18 µM (active) | EC50 [5]: 17 µM (active)

Cc1cc(C)c(NC=C2C(=O)NC(=O)NC2=O)c(C)c1
EC50 [9]: > 60 µM (not active) | EC50 [10]: > 120 µM (not active)

CCOC(=O)/C(C#N)=C\c1ccc(OCC(=O)Nc2ccc(C)cc2C)c(OC)c1
AC50 [11]: 10 µM (inconclusive) | AC50 [12]: 25.1 µM (inconclusive)

CCc1cc2c(=O)c(-c3ccc4c(c3)OCCO4)c(C)oc2cc1OS(C)(=O)=O
EC50 [4]: 21.3 µM (active) | EC50 [5]: 28.1 µM (active)

CCCCSc1ncc(C(=O)OCC)c(N)n1
EC50 [2]: 0.125 µM (active)

O=C(CSCc1cccc(Cl)c1)Nc1ccccc1-c1ccccc1
AC50 [13]: 21.7 µM (active)

O=C1[C@@H]2C=CC=CC2=NC(=S)N1CCN1CCC(=C(c2ccc(F)cc2)c2ccc(F)cc2)CC1
AC50 ([6]; read-out: AC50): 10 µM (inconclusive) | AC50 [11]: 3.16 µM (inconclusive)

N[N-][C+]1c2ccccc2N[C@H]1OC(=O)Nc1cccc(Cl)c1
AC50 ([6]; read-out: AC50): 3.16 µM (inconclusive) | AC50 [7]: 3.98 µM (inconclusive) | AC50 [11]: 5.01 µM (inconclusive)

O=C(Cn1cc(SCc2ccccc2Cl)c2ccccc21)N1CCOCC1
EC50 [1]: 23.8 µM (active) | EC50 [2]: 8.21 µM (active) | EC50 [3]: 21 µM (active)

CCC(c1nnnn1Cc1ccco1)N(CCc1ccccc1)Cc1cc2ccc(OC)cc2nc1O (stereo not drawn)
EC50 [4]: 22.8 µM (active) | EC50 [5]: 23.6 µM (active)

CCCCn1c(=N)n(CC(=O)c2ccco2)c2ccccc21
AC50 ([6]; read-out: AC50): 15.8 µM (inconclusive) | AC50 [11]: 31.6 µM (inconclusive)

N#Cc1c(N2CCCC2)nsc1-c1ccccc1
EC50 [1]: 7.09 µM (active) | EC50 [2]: 12.5 µM (active) | EC50 [3]: 23.2 µM (active)

COc1cc2c(=O)n(Cc3ccco3)c(=O)n(CC(=O)c3ccc(Br)cc3)c2cc1OC
EC50 [4]: 8.57 µM (active) | EC50 [5]: 9.3 µM (active)

Cc1ccc(S[C@@H](CCN2CC[C@H](C(C)(C)C)CCC2=O)c2ccccc2)cc1
AC50 [13]: 2.64 µM (active)

O=C(NCCCN1CCOCC1)c1cc2c(s1)CSC2
AC50 [11]: 15.8 µM (inconclusive)

O=C(NCCC[N+]1=CC=N[C@H]1c1ccccc1)N1CCCc2nc(-c3ccc(Br)cc3)ccc21
AC50 [11]: 3.16 µM (inconclusive)

CC(=O)N1CCC2(CCCN(C(=O)Nc3cccc(F)c3)C2)CC1
AC50 [11]: 31.6 µM (inconclusive)

Cc1noc(C)c1-c1cc(NCc2cccs2)ncn1
AC50 [6]: inconclusive | AC50 [7]: 20 µM (inconclusive) | AC50 [11]: 31.6 µM (inconclusive)

Cc1ccc(C23CC4CC(CC(NC(=O)N5CCN(C)CC5)(C4)C2)C3)cc1
EC50 [4]: 18 µM (active) | EC50 [5]: 17.7 µM (active)

COc1cccc(NC(=O)COC(=O)c2c3c(nc4ccccc24)CCC(C)C3)c1 (stereo not drawn)
EC50 [14]: 2.18 µM (active) | EC50 [4]: 8.9 µM (active) | EC50 [15]: > 60 µM (not active) | EC50 [5]: 14.4 µM (active)

CCC1CCCCN1C(=O)CSc1nc2c3ccccc3nc-2c(O)n1C (stereo not drawn)
EC50 [4]: 21.9 µM (active) | EC50 [5]: 21.2 µM (active)

CSC1=N/C(=C\c2ccc(C)cc2)C(=O)S1
AC50 [11]: 39.8 µM (inconclusive)

O=C(Nc1ccccc1[N+](=O)[O-])C1C(c2ccccc2)=C1c1ccccc1
AC50 [11]: 20 µM (inconclusive)

CC(C)[C@@H](OCc1ccccc1)[C@H](C)/C=N\O[C@@H](C)c1cn([C@H](CO)Cc2ccccc2)nn1
AC50 [11]: 3.16 µM (inconclusive) and 3.98 µM (inconclusive)

Cc1ccc(NC(=O)Cc2nc(CSc3nnc(-c4ccc5c(c4)OCO5)o3)cs2)cc1
EC50 [1]: 82.5 µM (active) | EC50 [2]: 53.6 µM (active) | EC50 [3]: 6.97 µM (active)

Clc1ccccc1-c1nnc2sc(-c3ccc4c(c3)OCO4)nn12
EC50 [1]: > 120 µM (not active) | EC50 [2]: 10.9 µM (active) | EC50 [3]: 57.6 µM (inconclusive)

C=CCc1cc(C=O)cc(OC)c1OCc1ccc(Cl)cc1
AC50 [11]: 17.8 µM (inconclusive)

CC(=O)/C(=C\c1ccccc1F)C(=O)c1ccccc1
AC50 [8]: 5.01 µM (inconclusive) | AC50 [11]: 3.16 µM (inconclusive) | AC50 [12]: 6.31 µM (inconclusive)

C[C@H]1[C@H](C)CC[C@]2(C)CC[C@]3(C)C(=CC(=O)C4[C@@]5(C)CC[C@H](O)C(C)(C)C5CC[C@]43C)[C@H]12 (stereo partly drawn)
AC50 [13]: 4.76 µM (active)

O=C(CSc1nnc(-c2ccccn2)o1)Nc1cccc(Cl)c1
EC50 [2]: 4.83 µM (active) | EC50 [3]: > 120 µM (not active)

C=C(C)COc1ccc(-c2nc(N)ncc2-c2ccc(Cl)cc2)c(O)c1
EC50 [16]: 6.33 µM (active) | EC50 [17]: > 150 µM (not active) | EC50 [18]: 8.12 µM (active) | AC50 [13]: 3.57 µM (active)

CCc1c(C2(O)CCCCC2)[nH]c2cc(C(F)(F)F)ccc12
AC50 [13]: 2.64 µM (active) | AC50 [19]: 7.52 µM (active)

CCCn1nc(Oc2nc(NCC)nc(NC(C)C)n2)ccc1=O
AC50 ([6]; read-out: AC50): 39.8 µM (inconclusive) | AC50 [11]: 0.00562 µM (inconclusive)

CCc1ccccc1NC(=O)c1ccc(F)c(S(=O)(=O)N2CCC(C(N)=O)CC2)c1
AC50 ([6]; read-out: AC50): 31.6 µM (inconclusive) | AC50 [12]: 25.1 µM (inconclusive)

C/C(=N\NC(=O)C1=NNC(=O)C1C)c1cccs1 (stereo not drawn)
EC50 [1]: 13 µM (active) | EC50 [2]: > 120 µM (not active) | EC50 [3]: 29.9 µM (active)

O=C(Cn1ccs/c1=N/C(=O)C(F)(F)F)c1ccccc1
EC50 [1]: 56.9 µM (active) | EC50 [2]: 47.9 µM (active) | EC50 [3]: 81.7 µM (inconclusive)
